# Source: ChEMBL document CHEMBL4229379, “Synthesis and structure-activity relationship of novel bisindole amidines active against MDR Gram-positive and Gram-negative bacteria” (Eur J Med Chem, 2018)
# Key:
# [1] = tested on: Staphylococcus epidermidis; assay: Antibacterial activity against methicillin-sensitive Staphylococcus epidermidis ATCC 12228 after 18 hrs by CLSI broth microdilution method; assay type: functional; conditions: ATCC 12228, 18 h
# [2] = tested on: Staphylococcus epidermidis; assay: Antibacterial activity against methicillin-resistant Staphylococcus epidermidis 12-8 after 18 hrs by CLSI broth microdilution method; assay type: functional; conditions: 12-8, 18 h
# [3] = tested on: Staphylococcus aureus; assay: Antibacterial activity against methicillin-sensitive Staphylococcus aureus ATCC 29213 after 18 hrs by CLSI broth microdilution method; assay type: functional; conditions: ATCC 29213, 18 h
# [4] = tested on: Staphylococcus aureus; assay: Antibacterial activity against methicillin-resistant Staphylococcus aureus 12-33 after 18 hrs by CLSI broth microdilution method; assay type: functional; conditions: 12-33, 18 h
# [5] = tested on: Enterococcus faecalis; assay: Antibacterial activity against vancomycin-sensitive Enterococcus faecalis ATCC 29212 after 18 hrs by CLSI broth microdilution method; assay type: functional; conditions: ATCC 29212, 18 h
# [6] = tested on: Enterococcus faecalis; assay: Antibacterial activity against vancomycin-resistant Enterococcus faecalis 09-9 after 18 hrs by CLSI broth microdilution method; assay type: functional; conditions: 09-9, 18 h
# [7] = tested on: Enterococcus faecium; assay: Antibacterial activity against vancomycin-resistant Enterococcus faecium ATCC 700221 after 18 hrs by CLSI broth microdilution method; assay type: functional; conditions: ATCC 700221, 18 h
# [8] = tested on: Enterococcus faecium; assay: Antibacterial activity against vancomycin-sensitive Enterococcus faecium 12-3 after 18 hrs by CLSI broth microdilution method; assay type: functional; conditions: 12-3, 18 h
# [9] = tested on: Escherichia coli; assay: Antibacterial activity against extended-spectrum beta-lactamase deficient Escherichia coli ATCC 25922 after 18 hrs by CLSI broth microdilution method; assay type: functional; conditions: ATCC 25922, 18 h
# [10] = tested on: Escherichia coli; assay: Antibacterial activity against extended-spectrum beta-lactamase harboring Escherichia coli 12-15 after 18 hrs by CLSI broth microdilution method; assay type: functional; conditions: 12-15, 18 h
# [11] = tested on: Klebsiella pneumoniae; assay: Antibacterial activity against extended-spectrum beta-lactamase harboring Klebsiella pneumoniae ATCC 700603 after 18 hrs by CLSI broth microdilution method; assay type: functional; conditions: Klebsiella pneumoniae, 700603, 18 h
# [12] = tested on: Klebsiella pneumoniae; assay: Antibacterial activity against new delhi metallo-beta-lactamase-1 harboring Klebsiella pneumoniae ATCC BAA-2146 after 18 hrs by CLSI broth microdilution method; assay type: functional; conditions: ATCC BAA-2146, 18 h
# [13] = tested on: Klebsiella pneumoniae; assay: Antibacterial activity against extended-spectrum beta-lactamase harboring Klebsiella pneumoniae 12-8 after 18 hrs by CLSI broth microdilution method; assay type: functional; conditions: 12-8, 18 h
# [14] = tested on: Pseudomonas aeruginosa; assay: Antibacterial activity against Pseudomonas aeruginosa ATCC 27853 after 18 hrs by CLSI broth microdilution method; assay type: functional; conditions: ATCC 27853, 18 h
# [15] = tested on: Acinetobacter calcoaceticus; assay: Antibacterial activity against Acinetobacter calcoaceticus ATCC 19606 after 18 hrs by CLSI broth microdilution method; assay type: functional; conditions: ATCC 19606, 18 h
# [16] = tested on: Enterobacter cloacae; assay: Antibacterial activity against Enterobacter cloacae ATCC 43560 after 18 hrs by CLSI broth microdilution method; assay type: functional; conditions: ATCC 43560, 18 h
# [17] = tested on: Proteus mirabilis; assay: Antibacterial activity against Proteus mirabilis 12-6 after 18 hrs by CLSI broth microdilution method; assay type: functional; conditions: 12-6, 18 h
# [18] = Cytotoxicity against HEK293T cells assessed as reduction in cell viability after 48 hrs by MTS assay; assay type: cell-based, HEK-293T; conditions: human
# [19] = tested on: Staphylococcus epidermidis; assay: Antibacterial activity against methicillin-sensitive Staphylococcus epidermidis 12-6 after 18 hrs by CLSI broth microdilution method; assay type: functional; conditions: 12-6, 18 h
# [20] = tested on: Staphylococcus aureus; assay: Antibacterial activity against methicillin-resistant Staphylococcus aureus ATCC 33591 after 18 hrs by CLSI broth microdilution method; assay type: functional; conditions: ATCC 33591, 18 h
# [21] = tested on: Staphylococcus aureus; assay: Antibacterial activity against methicillin-sensitive Staphylococcus aureus 15 after 18 hrs by CLSI broth microdilution method; assay type: functional; conditions: Staphylococcus aureus, 15, 18 h
# [22] = tested on: Staphylococcus aureus; assay: Antibacterial activity against methicillin-sensitive Staphylococcus aureus 12-28 after 18 hrs by CLSI broth microdilution method; assay type: functional; conditions: 12-28, 18 h
# [23] = tested on: Enterococcus faecalis; assay: Antibacterial activity against vancomycin-resistant Enterococcus faecalis ATCC 51299 after 18 hrs by CLSI broth microdilution method; assay type: functional; conditions: ATCC 51299, 18 h
# [24] = tested on: Enterococcus faecalis; assay: Antibacterial activity against vancomycin-sensitive Enterococcus faecalis 12-5 after 18 hrs by CLSI broth microdilution method; assay type: functional; conditions: 12-5, 18 h
# [25] = tested on: Enterococcus faecium; assay: Antibacterial activity against vancomycin-resistant Enterococcus faecium 12-1 after 18 hrs by CLSI broth microdilution method; assay type: functional; conditions: 12-1, 18 h
# [26] = tested on: Escherichia coli; assay: Antibacterial activity against extended-spectrum beta-lactamase deficient Escherichia coli 1515 after 18 hrs by CLSI broth microdilution method; assay type: functional; conditions: Escherichia coli, 1515, 18 h
# [27] = tested on: Escherichia coli; assay: Antibacterial activity against extended-spectrum beta-lactamase deficient Escherichia coli 12-14 after 18 hrs by CLSI broth microdilution method; assay type: functional; conditions: 12-14, 18 h
# [28] = tested on: Klebsiella pneumoniae; assay: Antibacterial activity against extended-spectrum beta-lactamase deficient Klebsiella pneumoniae 7 after 18 hrs by CLSI broth microdilution method; assay type: functional; conditions: Klebsiella pneumoniae, 7, 18 h
# [29] = tested on: Klebsiella pneumoniae; assay: Antibacterial activity against extended-spectrum beta-lactamase deficient Klebsiella pneumoniae 12-4 after 18 hrs by CLSI broth microdilution method; assay type: functional; conditions: 12-4, 18 h
# [30] = tested on: Pseudomonas aeruginosa; assay: Antibacterial activity against Pseudomonas aeruginosa PAO1 after 18 hrs by CLSI broth microdilution method; assay type: functional; conditions: PAO1, 18 h
# [31] = tested on: Pseudomonas aeruginosa; assay: Antibacterial activity against Pseudomonas aeruginosa 12-16 after 18 hrs by CLSI broth microdilution method; assay type: functional; conditions: 12-16, 18 h
# [32] = tested on: Klebsiella aerogenes; assay: Antibacterial activity against Enterobacter aerogenes ATCC 13048 after 18 hrs by CLSI broth microdilution method; assay type: functional; conditions: ATCC 13048, 18 h
# [33] = tested on: Serratia marcescens; assay: Antibacterial activity against Serratia marcescens ATCC 21074 after 18 hrs by CLSI broth microdilution method; assay type: functional; conditions: ATCC 21074, 18 h
# [34] = tested on: Providencia rettgeri; assay: Antibacterial activity against Providencia rettgeri ATCC 31052 after 18 hrs by CLSI broth microdilution method; assay type: functional; conditions: ATCC 31052, 18 h
# [35] = tested on: Proteus vulgaris; assay: Antibacterial activity against Proteus vulgaris ATCC 29905 after 18 hrs by CLSI broth microdilution method; assay type: functional; conditions: ATCC 29905, 18 h
# [36] = tested on: Stenotrophomonas maltophilia; assay: Antibacterial activity against Stenotrophomonas maltophilia ATCC 13636 after 18 hrs by CLSI broth microdilution method; assay type: functional; conditions: ATCC 13636, 18 h
# [37] = tested on: Citrobacter freundii; assay: Antibacterial activity against Citrobacter freundii ATCC 43864 after 18 hrs by CLSI broth microdilution method; assay type: functional; conditions: ATCC 43864, 18 h
Compound,MIC [1] [µg/mL],MIC [2] [µg/mL],MIC [3] [µg/mL],MIC [4] [µg/mL],MIC [5] [µg/mL],MIC [6] [µg/mL],MIC [7] [µg/mL],MIC [8] [µg/mL],MIC [9] [µg/mL],MIC [10] [µg/mL],MIC [11] [µg/mL],MIC [12] [µg/mL],MIC [13] [µg/mL],MIC [14] [µg/mL],MIC [15] [µg/mL],MIC [16] [µg/mL],MIC [17] [µg/mL],CC50 at 48 h [18] [µg/mL],MIC [19] [µg/mL],MIC [20] [µg/mL],also measured
CCC(C)NC(=N)c1ccc2cc(-c3cncc(-c4cc5ccc(C(=N)NC(C)CC)cc5[nH]4)c3)[nH]c2c1 (centres undefined),8,8,8,16,> 64,> 64,> 64,> 64,> 64,> 64,> 64,> 64,> 64,> 64,> 64,> 64,> 64,22.8,8,8,MIC [21]: 16 µg/mL; MIC [22]: 16 µg/mL; MIC [23]: > 64 µg/mL; MIC [24]: > 64 µg/mL; MIC [25]: 64 µg/mL; MIC [26]: > 64 µg/mL; MIC [27]: > 64 µg/mL; MIC [28]: > 64 µg/mL; MIC [29]: > 64 µg/mL; MIC [30]: > 64 µg/mL; MIC [31]: > 64 µg/mL; MIC [32]: > 64 µg/mL; MIC [33]: > 64 µg/mL; MIC [34]: > 64 µg/mL; MIC [35]: > 64 µg/mL; MIC [36]: > 64 µg/mL; MIC [37]: > 64 µg/mL
N=C(c1ccc2cc(-c3ccc(-c4cc5ccc(C(=N)N6CCC6)cc5[nH]4)cc3)[nH]c2c1)N1CCC1,0.125,0.125,2,4,4,1,1,2,1,2,32,16,32,64,32,8,16,2.84,0.125,1,MIC [21]: 2 µg/mL; MIC [22]: 2 µg/mL; MIC [23]: 2 µg/mL; MIC [24]: 4 µg/mL; MIC [25]: 1 µg/mL; MIC [26]: 2 µg/mL; MIC [27]: 2 µg/mL; MIC [28]: 16 µg/mL; MIC [29]: 8 µg/mL; MIC [30]: 128 µg/mL; MIC [31]: 128 µg/mL; MIC [32]: 4 µg/mL; MIC [33]: 32 µg/mL; MIC [34]: 8 µg/mL; MIC [35]: 32 µg/mL; MIC [36]: 8 µg/mL; MIC [37]: 4 µg/mL
